What is called Ki is a measure of affinity in units of concentration, obtained from inhibition or displacement.

The target in assay [1] is 5-hydroxytryptamine receptor 2A (Homo sapiens, UniProt P28223). The assay is described as follows: Displacement of [3H]ketanserin from 5HT2A receptor (unknown origin) expressed in HEK293T cell membranes.
Assay [2] concerns the target 5-hydroxytryptamine receptor 2B (Homo sapiens, UniProt P41595). The experiment in a line: Displacement of [3H]LSD from 5HT2B receptor (unknown origin) expressed in HEK293 cell membranes. On the technique in general: Displacement assays read how much labelled ligand stays bound in the presence of the test substance.
For assay [3], the target named is T1, 5-hydroxytryptamine receptor 2C (Homo sapiens, UniProt P28335).
T1 sequence (P28335 whole entry): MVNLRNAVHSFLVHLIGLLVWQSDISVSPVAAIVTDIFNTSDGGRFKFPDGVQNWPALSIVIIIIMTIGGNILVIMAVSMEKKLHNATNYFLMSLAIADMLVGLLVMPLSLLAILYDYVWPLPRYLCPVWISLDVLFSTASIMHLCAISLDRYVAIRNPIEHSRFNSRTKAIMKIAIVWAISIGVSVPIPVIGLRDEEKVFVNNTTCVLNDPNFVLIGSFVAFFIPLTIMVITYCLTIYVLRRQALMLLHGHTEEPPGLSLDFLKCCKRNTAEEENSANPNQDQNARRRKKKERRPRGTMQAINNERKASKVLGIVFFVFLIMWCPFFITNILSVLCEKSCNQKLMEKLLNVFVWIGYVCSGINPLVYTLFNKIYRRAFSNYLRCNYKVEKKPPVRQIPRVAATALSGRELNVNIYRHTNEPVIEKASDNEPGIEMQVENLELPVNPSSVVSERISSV
The experiment in a line: Displacement of [3H]mesulergine from 5HT2C receptor (unknown origin) expressed in HEK293T cell membranes.

Assay [4] deals with Serotonin 2 receptors; 5-HT2a & 5-HT2c (Homo sapiens) (UniProt P28223+P28335). The assay is described as follows: Selectivity ratio of Ki for displacement of [3H]ketanserin from 5HT2A receptor (unknown origin) expressed in HEK293T cell membranes to Ki for displacement of [3H]mesulergine from 5HT2C receptor (unknown origin) expressed in HEK293T cell membranes.
The species named for the next assay is Homo sapiens. The assay is described as follows: Selectivity ratio of Ki for displacement of [3H]LSD from 5HT2B receptor (unknown origin) expressed in HEK293 cell membranes to Ki for displacement of [3H]mesulergine from 5HT2C receptor (unknown origin) expressed in HEK293T cell membranes.
Assay [5] can be described thus: Selectivity ratio of Ki for displacement of [3H]DOI from recombinant human 5HT2B receptor expressed in HEK293T cell membranes to Ki for displacement of [3H]DOI from recombinant human 5HT2C receptor expressed in HEK293T cell membranes.

5-hydroxytryptamine receptor 2B, sequence (P41595 whole entry): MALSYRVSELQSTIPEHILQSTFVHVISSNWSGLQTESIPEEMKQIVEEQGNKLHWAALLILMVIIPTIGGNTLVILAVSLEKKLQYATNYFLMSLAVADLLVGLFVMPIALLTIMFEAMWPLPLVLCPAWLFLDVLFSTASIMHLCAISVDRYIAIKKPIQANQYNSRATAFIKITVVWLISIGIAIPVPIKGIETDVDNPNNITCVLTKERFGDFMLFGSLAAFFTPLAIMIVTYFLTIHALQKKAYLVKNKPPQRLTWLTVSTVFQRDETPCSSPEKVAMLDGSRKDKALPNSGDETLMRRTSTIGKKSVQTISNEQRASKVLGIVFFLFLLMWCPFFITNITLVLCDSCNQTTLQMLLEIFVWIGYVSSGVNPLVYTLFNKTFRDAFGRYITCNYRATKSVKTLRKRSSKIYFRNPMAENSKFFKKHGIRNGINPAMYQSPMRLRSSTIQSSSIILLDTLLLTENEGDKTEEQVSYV
Serotonin 2 receptors; 5-HT2a & 5-HT2c (Homo sapiens), sequence (P28223 whole entry, looked up, one chain of several): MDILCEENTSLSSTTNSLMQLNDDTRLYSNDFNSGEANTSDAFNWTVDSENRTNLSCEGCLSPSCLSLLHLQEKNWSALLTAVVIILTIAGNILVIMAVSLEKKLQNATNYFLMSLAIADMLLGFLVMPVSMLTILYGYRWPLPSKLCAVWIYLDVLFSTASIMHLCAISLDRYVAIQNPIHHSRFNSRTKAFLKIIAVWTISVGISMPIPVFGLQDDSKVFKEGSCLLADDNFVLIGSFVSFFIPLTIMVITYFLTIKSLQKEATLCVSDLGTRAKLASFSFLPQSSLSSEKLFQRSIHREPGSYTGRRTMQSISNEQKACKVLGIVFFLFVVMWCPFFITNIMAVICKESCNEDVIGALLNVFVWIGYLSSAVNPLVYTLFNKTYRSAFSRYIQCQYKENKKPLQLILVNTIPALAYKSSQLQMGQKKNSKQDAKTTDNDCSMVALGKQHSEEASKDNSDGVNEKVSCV
5-hydroxytryptamine receptor 2A, sequence (P28223 whole entry): as the sequence (P28223 whole entry, looked up, one chain of several) above

Turning to `COc1cc2c3c(c1)-c1c(cccc1OC(=O)c1ccc(F)cc1)C[C@H]3N(C)CC2`, the Ki in assay [1] is 450 nM; in assay [2] it was 102 nM; in assay [3] it was 32 nM. Besides, the values for the Ratio Ki (in assay [4]; in the assay listed under Homo sapiens) were 14 and 3.2, respectively.
With `CCCN1CCc2cc(OC)cc3c2[C@H]1Cc1cccc(OCc2ccc(F)cc2)c1-3`, the inhibitory constant (Ki) in assay [1], in assay [2] and in assay [3] was greater than 10000 nM each time.
In the case of `C[C@H]1CNCCc2ccc(Cl)cc21` [LORCASERIN], the Ki in assay [5] is 12 nM.
Turning to `CCCN1CCc2cc(OC)cc3c2[C@H]1Cc1cccc(OC(=O)c2ccc(F)cc2)c1-3`, the results for the inhibition constant Ki in assay [1], in assay [2] and in assay [3] were 414 nM, 106 nM and 24 nM, respectively. The Ratio Ki turned out to be 17 in assay [4] and 4.4 in the assay filed under Homo sapiens.
Take `COc1cc2c3c(c1)-c1c(cccc1OCc1ccc(F)cc1)C[C@H]3N(C)CC2`: the Ki in assay [1] is 2310 nM; in assay [2] it was 2680 nM; in assay [3], greater than 10000 nM.
For the molecule `COc1cc2c3c(c1)-c1c(cccc1OCCF)C[C@H]3N(C)CC2`, the figures for the Ki in assay [1], in assay [2] and in assay [3] were 1140 nM, 552 nM and 343 nM, respectively. The Ratio Ki is 3.3 in assay [4] and 1.6 in the assay listed under Homo sapiens.
With `CCCN1CCc2cc(OC)cc3c2[C@H]1Cc1cccc(OCCCF)c1-3`, the inhibition constant Ki in assay [1], in assay [2] and in assay [3] was greater than 10000 nM each time.
As for `COc1cc2c3c(c1)-c1c(cccc1OCCCF)C[C@H]3N(C)CC2`, the Ki in assay [1] turned out to be 434 nM; in assay [2] it was 422 nM; in assay [3], 338 nM. Also, the Ratio Ki in assay [4] amounted to 1.3; in the assay listed under Homo sapiens it was 1.2.
As to `CCCN1CCc2cc(OC)cc3c2[C@H]1Cc1cccc(OCCF)c1-3`, the results for the Ki in assay [1], in assay [2] and in assay [3] were greater than 10000 nM, 3040 nM and greater than 10000 nM, respectively.

(Values after ChEMBL document CHEMBL4371060, “Identification of fluorinated (R)-(-)-aporphine derivatives as potent and selective ligands at serotonin 5-HT2C receptor” (Bioorg Med Chem Lett, 2019).)
